Structures are written as SMILES. ≈ marks a conversion by molar mass, not a printed value.

For the assay, the system named is Mycobacterium tuberculosis variant bovis. In words: Antituberculosis activity against Mycobacterium bovis AN5 expressing lux gene assessed as inhibition of bacterial replication after 6 days by luminometry analysis. Format: functional, organism-based. As to conditions: AN5, 144 h.
Consider `O=C(/N=N/c1ccc([N+](=O)[O-])cc1)Nc1ccccc1`, for which the IC50 worked out at 2.21 µg/mL (≈ 8.18 µM).

For `O=C(/N=N/c1ccc(C(F)(F)F)cc1)Nc1ccccc1`, the IC50 was 1.05 µg/mL (≈ 3.58 µM).

As for `CCOC(=O)/N=N/C(=O)Nc1ccc(C)cc1`, the IC50 is 2.78 µg/mL (≈ 11.8 µM).

For orientation: IC50 means the concentration at which inhibition is half-maximal.

These data come from ChEMBL document CHEMBL3112428, “Biological evaluation of diazene derivatives as anti-tubercular compounds” (Eur J Med Chem, 2014).
